Peptide text beside a SMILES is read from it. * marks the point of attachment. Cbz = O=C(OCc1ccccc1)*

Data on three molecules can be found in patent US9572788B2, “Cell permeable inhibitors of anaphase promoting complex” (President and Fellows of Harvard College, priority 2014, dated 2017).

Format in all cases: cell-based, human
Test [1] relates to HeLa H2B-GFP cells. The test is described as follows: Live cell imaging of mitotic duration and cell fate. The method, then:
Detailed siRNA transfection and drug treatment schemes are described in supplemental experimental procedures. HeLa H2B-GFP cells were plated in DMEM with 10% FBS at 20% confluence. […] Live cell imaging was performed at 12 minute intervals on a Nikon TE2000E PFS inverted microscope fitted with an incubation chamber maintained at 37° C. and supplied with 5% CO2. Cell division was tracked by manual inspection of movies, and mitotic duration was measured as the time between the first frame of chromosome condensation and the frame of chromosome segregation (anaphase), decondensation (mitotic exit without anaphase) or cell death (chromosomes shrinking to a small bright dot).
The imaging plate was mounted onto a motorized stage (Prior ProScan II) on a Nikon TE2000E PFS inverted microscope fitted with an incubation chamber maintained at 37° C. and supplied with 5% CO2. A 20× Plan Apo 0.75 NA or 40× Plan Fluor 0.75 NA objective lens was used as indicated and images were collected with 2×2 binning. […] TIFF files of each image were exported from Elements and used to build stacks and Quicktime movies with Metamorph imaging software (Molecular Devices). For manual analysis, mitotic duration is counted as the time between the first frame of chromosome condensation and the frame of chromosome segregation (anaphase) or decondensation (mitotic exit in the presence of nocodazole) or cell death (chromosomes shrinking to a small bright dot).
HeLa H2B-GFP cells were plated in a 24-well plate in DMEM 10% FBS at 20% confluence one day prior to experiment and synchronized by double thymidine block as described above. […] Live cell imaging was set up as described above.
HeLa H2B-GFP cells were plated in a 24-well plate in DMEM+10% FBS at 20% confluence one day prior to the experiment and synchronized by double thymidine block as described above. The cells were released from the first thymidine block into 200 μl OptiMem without FBS. Transfection was performed immediately after the first thymidine release. […] The two mixtures were left at room temperature for 5 min before being mixed together and incubated for additional 20 min and then added to the cells to a final volume of 250 μl. 4 h after transfection, 250 μl of DMEM+20% FBS were added to cells.
HeLa H2B-GFP cells were plated in glass-bottom 24-well plates at 20% confluence one day prior to the experiment and synchronized by double thymidine block as described above. […] Cells were treated with 100 nM Hesperadin or DMSO 8 h after release from the second thymidine block and live cell imaging was set up as described above.
HeLa H2B-GFP cells were plated in a 24-well plate in DMEM+10% FBS at 20% confluence one day prior to experiment and synchronized by double thymidine block as synchronized above. […] Live cell imaging was set up as described above.
HeLa H2B-GFP cells were plated in a 24-well plate in DMEM+10% FBS at 20% confluence one day prior to experiment and synchronized by double thymidine block as described above. […] Untreated cells were used as the control. Live cell imaging was set up as described above. […] Alternatively, at 10 h after release from the second block, 10 μM MG132 with or without 25 μg/ml cycloheximide was added to the cells. […] Live cell imaging was set up as described above.
HeLa H2B-GFP cells were plated in a 24-well plate in DMEM+10% FBS at 20% confluence one day prior to experiment and synchronized by double thymidine block as described above. Mad2 siRNA transfection was performed as described above. At 10 h after release from the second block, 10 μM MG132 with or without 25 μg/ml cycloheximide was added to the cells. Live cell imaging was set up as described above. Manual analysis was focused only on cells that entered mitosis after MG132 addition.
Live cell imaging experiments. […] Nocodazole, taxol, proTAME, cyclinal and hesperadin were added to cells at 8 h after release. MG132 was added to cells at 10 h after release to allow mitotic entry.

For test [2], the system named is HeLa H2B-GFP cells. The test can be described thus: Chromosome congression analysis. As to the method:
HeLa H2B-GFP cells were plated in 35 mm glass-bottom dishes (MatTek) in DMEM+10% FBS at 20% confluence one day prior to the experiment and synchronized by double thymidine block as described above. Drugs were added as follows to a final volume of 3 ml from 2× concentrated preparation in culture medium. DMSO (0.06%), proTAME (3 and 12 μM) or 10 nM Nocodazole were added 8 h after release from the second block, while MG132 (10 μM) was added at 10 h. H2B-GFP was imaged for 4 hrs every 3 min at 40× magnification as described above.

Another test relates to HeLa cells. The test can be described thus: Immunofluorescence of mitotic spindle and interkinetochore distance. The conditions noted are these: asynchronous HeLa, 2 h; 12 μM proTAME; nocodazole or taxol. The method, then:
HeLa cells grown in DMEM+10% FBS were plated on 25 mm glass coverslips in a E-well dish at a density of 130,000/ml×3 ml 48 h prior to treatment. They were then treated with 0.06% DMSO, 12 μM proTAME, 300 nM nocodazole or 300 nM taxol for 2 h. The cells were washed twice with PBS and fixed with 3% paraformaldehyde for 15 min. The cells were then washed with PBS and permeabilized with PBS plus 0.5% Triton X-100 for 2 min. The cells were then washed with PBS and blocked with PBS plus 5% FBS for 1 h. CREST antisera diluted 1:50 into PBS was added to the cells and incubated at room temperature for 1 h. The cells were washed with PBS and incubated with 1:1000 anti-human-Alexa 568 (Invitrogen, A21090) and 1:100 anti-α-tubulin-FITC for 1 h. The cells were then washed with PBS and the nuclei were stained with 1 μg/ml Hoechst 33342. The cover slips were mounted in 0.1M N-propylgallate in 9:1 glycerol:PBS. Z-series images were taken on a Nikon TE2000 microscope with PerkinElmer spinning disk confocal device. Maximal Z-projection images of individual cells were made by Image J. To measure interkinetochore distances, a straight line was drawn across a kinetochore pair in the same confocal plane and pixel intensities along the line were plotted so that each kinetochore would be represented by a peak on the line. The interkinetochore distance was calculated as the distance between the peaks. Fifty-five kinetochore pairs from 5 cells treated with DMSO or proTAME were measured and the p-value was calculated with a paired student test.

Setting [3] is: Fig 6C, compounds 8 h after release, 12 μM proTAME, 300 nM nocodazole, 150 nM taxol, 100 nM hesperadin.
Setting [4] is: Fig 6D, Cdc27 siRNA, 100 nM hesperadin.
Setting [5] is: Fig 6D, UbcH10 siRNA, 100 nM hesperadin.
[6] abbreviates: Fig 6D, control siRNA, 100 nM hesperadin.
[7] abbreviates: Fig S4C, proTAME 12 μM, MG132 10 μM, nocodazole 10 nM.
[8] abbreviates: Fig 7A, control siRNA, 3 μM MG132.
[9] abbreviates: Fig 7B, MG132 3 μM, 100 nM hesperadin, 12 μM proTAME.
Where [10] appears, read: Fig 7D, MG132 10 μM, 100 nM hesperadin, 12 μM proTAME.
Setting [11] is: Fig 8B, MAD2 siRNA, MG132 10 μM ± 25 μg/ml cycloheximide.
Where [12] appears, read: Fig 8B, control siRNA, MG132 10 μM ± 25 μg/ml cycloheximide.
[13] abbreviates: Fig 8A, 12 μM proTAME, 300 nM nocodazole or 150 nM taxol, ± 25 μg/ml cycloheximide 4 h later.

`CCS(=O)(=O)Nc1ccc2c(c1)/C(=C(/Nc1ccc(CN3CCCCC3)cc1)c1ccccc1)C(=O)N2` [Hesperadin, reference compound]: the Average mitotic duration worked out at 98.7 min with HeLa H2B-GFP cells [1] (setting [3]), 131.8 min in the test on HeLa H2B-GFP cells [1] (setting [4]), 115.8 min in the test on HeLa H2B-GFP cells [1] (setting [5]) and 115.6 min with HeLa H2B-GFP cells [1] (setting [6]). In addition, the Median mitotic duration with HeLa H2B-GFP cells [1] (setting [3]) is 96 min; with HeLa H2B-GFP cells [1] (setting [4]), 132 min; in the test on HeLa H2B-GFP cells [1] (setting [5]) it was 108 min; with HeLa H2B-GFP cells [1] (setting [6]), 120 min. For the same molecule, in the test with HeLa H2B-GFP cells [1] (co-treated with taxol), the “Mitotic duration in the presence of taxol” value is listed as approximately 2 h.

For the molecule `CC(C)C[C@@H](C=O)NC(=O)[C@H](CC(C)C)NC(=O)[C@H](CC(C)C)NC(=O)OCc1ccccc1` [MG132, reference compound] (Cbz-Leu-Leu-Leu-aldehyde), the “Delay in chromosome congression” value with HeLa H2B-GFP cells [2] (3 μM proTAME or 10 μM MG132) is “caused no delay in chromosome congression”. The “Average chromosome congression time” value in the test with HeLa H2B-GFP cells [2] (setting [7]) was found to be 21.6 min. Moreover, the “Median chromosome congression time” value with HeLa H2B-GFP cells [2] (setting [7]) is recorded as 21 min. Further, the “Median duration of mitotic arrest” value in the test with HeLa H2B-GFP cells [1] (3 μM) was found to be 15 h. The “Cells that exited mitosis” value with HeLa H2B-GFP cells [1] (3 μM, 30 h experiment) is 10%; in the test on HeLa H2B-GFP cells [1] (3 μM, cells depleted of Mad2 by RNAi) it was 50%. Further, the “Response of arrested cells to roscovitine” value in the test with HeLa H2B-GFP cells [1] (100 μM roscovitine at 12 h after release) is on record as “showed complete resistance to roscovitine”. The Average mitotic duration is reported as 605.3 min in the test with HeLa H2B-GFP cells [1] (Fig 7A, MAD2 siRNA, 3 μM MG132); 830.1 min in the test on HeLa H2B-GFP cells [1] (setting [8]); 1549.9 min in the test with HeLa H2B-GFP cells [1] (setting [9]); 2169.8 min in the test on HeLa H2B-GFP cells [1] (setting [10]); 1755.2 min with HeLa H2B-GFP cells [1] (setting [11]); 1715.1 min with HeLa H2B-GFP cells [1] (setting [12]). Moreover, the Median mitotic duration with HeLa H2B-GFP cells [1] (Fig 7A, MAD2 siRNA, 3 μM MG132) is listed as 667.5 min; with HeLa H2B-GFP cells [1] (setting [8]) it was 840 min; with HeLa H2B-GFP cells [1] (setting [9]), 1440 min; in the test on HeLa H2B-GFP cells [1] (setting [10]), 2172 min; with HeLa H2B-GFP cells [1] (setting [11]) it was 1716 min; with HeLa H2B-GFP cells [1] (setting [12]), 1614 min. The “Time normal-appearing metaphase plate maintained” value with HeLa H2B-GFP cells [1] (MG132 alone) is listed as “over 5 h”. Besides, in the test with HeLa H2B-GFP cells [1] (synchronized, drugs 10 hrs after release, proTAME 3 μM, low-dose MG132), the Median mitotic delay/arrest was found to be 276 min.

`CC(=O)O[C@H]1C(=O)[C@@]2(C)[C@H]([C@H](OC(=O)c3ccccc3)[C@]3(O)C[C@H](OC(=O)[C@H](O)[C@@H](NC(=O)c4ccccc4)c4ccccc4)C(C)=C1C3(C)C)[C@]1(OC(C)=O)CO[C@@H]1C[C@@H]2O` [Taxol, reference compound]: the “Effect on mitotic spindle” value in the test with HeLa cells is reported as “strongly perturbed spindle organization”. Moreover, the results for the Average mitotic duration with HeLa H2B-GFP cells [1] (setting [3]) and in the test on HeLa H2B-GFP cells [1] (setting [13]) were 1946.9 min and 1557.6 min, respectively. Moreover, the Median mitotic duration was 2070 min in the test with HeLa H2B-GFP cells [1] (setting [3]); 1602 min in the test with HeLa H2B-GFP cells [1] (setting [13]); 414 min in the test with HeLa H2B-GFP cells [1] (unsynchronized HeLa H2B-GFP, taxol 10 nM, proTAME 3 μM, control 60 min).
